Measurements: ChEMBL document CHEMBL4428134, “Discovery of AZD2716: A Novel Secreted Phospholipase A2 (sPLA2) Inhibitor for the Treatment of Coronary Artery Disease” (ACS Med Chem Lett, 2016)
In brackets after ≈: the same amount, converted by molar mass. Activity calls are given as the source filed them. No cut-off for these calls is given here.

Experiments:
[1] = target: T1, Secretory phospholipase A2 (Homo sapiens) (UniProt Q5R387+Q9NZK7+P14555+Q9BZM2+Q9UNK4+P39877+O15496+P04054+Q9NZ20+Q9BZM1+Q9BX93); experiment: Inhibition of sPLA2 in human plasma using 1-Hexadecanoyl-2-(1-pyrenedecanoyl)-sn-glycero-3-phosphomethanol as substrate preincubated for 10 mins followed by substrate addition measured after 90 mins by fluorescence assay; assay type: cell-free
[2] = Unbound fraction in human plasma; assay type: ADME, cell-free
[3] = target: T2, Phospholipase A2, membrane associated (Homo sapiens, UniProt P14555); experiment: (§1) Inhibition of recombinant sPLA2-2A (unknown origin) using 1-palmitoyl-2-oleoyl-sn-glycero-3-phosphocholine as substrate preincubated for 10 mins followed by substrate addition measured after 60 mins by colorimetric method
T2 sequence (P14555 whole entry): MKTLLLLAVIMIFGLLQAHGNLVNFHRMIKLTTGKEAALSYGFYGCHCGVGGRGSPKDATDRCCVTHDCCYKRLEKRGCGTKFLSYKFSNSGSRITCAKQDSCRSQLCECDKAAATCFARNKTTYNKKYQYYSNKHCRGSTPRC

[4] = target: Phospholipase A2, membrane associated (Homo sapiens) (UniProt P14555); experiment: as §1
Homo sapiens = species: Homo sapiens; experiment: Inhibition of recombinant sPLA2-5 (unknown origin) at 25 uM using 1-palmitoyl-2-oleoyl-sn-glycero-3-phosphocholine as substrate preincubated for 10 mins followed by substrate addition measured after 60 mins by colorimetric method
[5] = target: T3, Group 10 secretory phospholipase A2 (Homo sapiens, UniProt O15496); experiment: Inhibition of recombinant sPLA2-10 (unknown origin) using 1-palmitoyl-2-oleoyl-sn-glycero-3-phosphocholine as substrate preincubated for 10 mins followed by substrate addition measured after 60 mins by colorimetric method
T3 sequence (O15496 whole entry): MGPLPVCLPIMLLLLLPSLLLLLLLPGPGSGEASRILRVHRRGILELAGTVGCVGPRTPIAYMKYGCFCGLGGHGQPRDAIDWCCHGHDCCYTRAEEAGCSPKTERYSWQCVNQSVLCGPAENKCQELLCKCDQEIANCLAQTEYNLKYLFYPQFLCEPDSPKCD

[6] = Intrinsic clearance in human hepatocytes at 1 uM assessed per million cells measured up to 60 mins; assay type: ADME, cell-based, Hepatocyte; conditions: 1 h
[7] = Inhibition of recombinant sPLA2-5 (unknown origin) using 1-palmitoyl-2-oleoyl-sn-glycero-3-phosphocholine as substrate preincubated for 10 mins followed by substrate addition measured after 60 mins by colorimetric method; parameters: species or system Homo sapiens
[8] = target: T1, Secretory phospholipase A2 (Homo sapiens); experiment: Inhibition of sPLA2 in human plasma at 25 uM using 1-Hexadecanoyl-2-(1-pyrenedecanoyl)-sn-glycero-3-phosphomethanol as substrate preincubated for 10 mins followed by substrate addition measured after 90 mins by fluorescence assay; assay type: cell-free
[9] = target: Solute carrier organic anion transporter family member 1B1 (Homo sapiens, UniProt Q9Y6L6); experiment: Inhibition of human OATP1B1 expressed in HEK293 cells assessed as reduction in […] uptake at 25 uM; assay type: cell-based; conditions: hek293, 25 µM
Chain of Solute carrier organic anion transporter family member 1B1 (Q9Y6L6 whole entry): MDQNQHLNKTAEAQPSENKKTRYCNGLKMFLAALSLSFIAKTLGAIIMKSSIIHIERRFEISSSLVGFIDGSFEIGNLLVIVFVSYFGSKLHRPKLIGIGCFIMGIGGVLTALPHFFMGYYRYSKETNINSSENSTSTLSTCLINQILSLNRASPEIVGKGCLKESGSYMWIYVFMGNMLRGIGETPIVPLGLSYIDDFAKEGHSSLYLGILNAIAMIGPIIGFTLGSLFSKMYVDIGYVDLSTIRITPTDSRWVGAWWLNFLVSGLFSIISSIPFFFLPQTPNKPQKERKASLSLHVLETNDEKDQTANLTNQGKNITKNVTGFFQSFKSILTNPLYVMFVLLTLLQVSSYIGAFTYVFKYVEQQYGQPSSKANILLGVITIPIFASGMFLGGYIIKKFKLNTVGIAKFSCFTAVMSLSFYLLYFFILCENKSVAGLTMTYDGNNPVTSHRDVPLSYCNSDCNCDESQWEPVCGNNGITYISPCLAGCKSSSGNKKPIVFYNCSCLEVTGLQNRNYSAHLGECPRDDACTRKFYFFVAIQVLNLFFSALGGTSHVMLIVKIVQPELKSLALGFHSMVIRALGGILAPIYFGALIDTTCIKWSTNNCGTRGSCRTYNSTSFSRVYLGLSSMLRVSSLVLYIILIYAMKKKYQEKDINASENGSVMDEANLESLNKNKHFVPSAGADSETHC

[10] = Oral bioavailability in Sprague-Dawley rat at 8 umol/kg; assay type: ADME, organism-based; conditions: in vivo
[11] = target: Secretory phospholipase A2; experiment: Inhibition of sPLA2 in atherosclerotic plaque from coronary artery disease patient; assay type: protein assay, Homo sapiens
[12] = Oral bioavailability in cynomolgus monkey at 15.8 umol/kg; assay type: ADME, organism-based, Macaca fascicularis; conditions: in vivo
[13] = AUC (0 to infinity) in beagle dog at 3 umol/kg, po; assay type: ADME, Canis lupus familiaris; parameters: dose 3 umol/kg, route oral, time infinity; conditions: in vivo
[14] = AUC (0 to infinity) in mouse at 50 umol/kg, po; assay type: ADME; parameters: dose 50 umol/kg, route oral, time infinity; conditions: in vivo
HepG2 = experiment: Inhibition of sPLA2-2A production in human HepG2 cells; assay type: functional, cell-based
[15] = target: Secretory phospholipase A2; experiment: Inhibition of sPLA2 in human HepG2 cells; assay type: cell-based
[16] = AUC (0 to infinity) in Sprague-Dawley rat at 8 umol/kg, po; assay type: ADME; parameters: dose 8 umol/kg, time infinity, route oral; conditions: in vivo
[17] = Oral bioavailability in beagle dog at 3 umol/kg; assay type: ADME, organism-based, Canis lupus familiaris; conditions: in vivo
[18] = Volume of distribution at steady state in cynomolgus monkey at 5 umol/kg, iv or 15.8 umol/kg, po; assay type: ADME, organism-based, Macaca fascicularis; conditions: in vivo
[19] = Volume of distribution at steady state in Sprague-Dawley rat at 2 umol/kg, iv or 8 umol/kg, po; assay type: ADME, organism-based; conditions: in vivo
Cynomolgus monkey = experiment: In vivo inhibition of sPLA2 in po dosed cynomolgus monkey plasma measured up to 24 hrs; assay type: functional, Macaca fascicularis
[20] = AUC (0 to infinity) in cynomolgus monkey at 15.8 umol/kg, po; assay type: ADME, Macaca fascicularis; parameters: dose 15.8 umol/kg, route oral, time infinity; conditions: in vivo
[21] = Volume of distribution at steady state in mouse at 10 umol/kg, iv or 50 umol/kg, po; assay type: ADME, organism-based; conditions: in vivo
[22] = Volume of distribution at steady state in beagle dog at 1 umol/kg, iv or 3 umol/kg, po; assay type: ADME, organism-based, Canis lupus familiaris; conditions: in vivo
Macaca fascicularis = species: Macaca fascicularis; experiment: Inhibition of sPLA2 in cynomolgus monkey plasma using 1-Hexadecanoyl-2-(1-pyrenedecanoyl)-sn-glycero-3-phosphomethanol as substrate preincubated for 10 mins followed by substrate addition measured after 90 mins by fluorescence assay; assay type: cell-free
[23] = Oral bioavailability in mouse at 50 umol/kg; assay type: ADME, organism-based; conditions: in vivo
Cytochrome P450 2C8 = Cytochrome P450 2C8 (Homo sapiens, UniProt P10632); experiment: Inhibition of human recombinant CYP2C8; assay type: ADME
Chain of Cytochrome P450 2C8 (P10632 whole entry): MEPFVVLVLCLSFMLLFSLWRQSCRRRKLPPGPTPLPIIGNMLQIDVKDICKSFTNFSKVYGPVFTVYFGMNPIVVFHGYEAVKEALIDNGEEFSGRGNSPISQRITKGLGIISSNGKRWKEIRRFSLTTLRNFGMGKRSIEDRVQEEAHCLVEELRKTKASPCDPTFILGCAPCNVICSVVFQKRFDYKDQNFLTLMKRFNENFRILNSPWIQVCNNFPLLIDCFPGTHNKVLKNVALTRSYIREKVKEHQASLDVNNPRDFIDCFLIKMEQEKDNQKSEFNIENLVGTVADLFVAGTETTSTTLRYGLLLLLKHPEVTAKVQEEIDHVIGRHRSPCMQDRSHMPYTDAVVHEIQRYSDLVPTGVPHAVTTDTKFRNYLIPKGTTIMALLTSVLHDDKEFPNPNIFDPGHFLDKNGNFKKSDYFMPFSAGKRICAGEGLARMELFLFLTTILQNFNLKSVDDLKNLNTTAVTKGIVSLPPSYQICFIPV

[24] = Solubility of compound in pH 7.4 DMSO/HBSS after 24 hrs by LC-UV/MS analysis; assay type: physicochemical
[25] = Inhibition of human IKs channel expressed in CHO cells by patch clamp assay; assay type: cell-based
Cytochrome P450 2C9 = Cytochrome P450 2C9 (Homo sapiens, UniProt P11712); experiment: Inhibition of human recombinant CYP2C9; assay type: ADME
Chain of Cytochrome P450 2C9 (P11712 whole entry): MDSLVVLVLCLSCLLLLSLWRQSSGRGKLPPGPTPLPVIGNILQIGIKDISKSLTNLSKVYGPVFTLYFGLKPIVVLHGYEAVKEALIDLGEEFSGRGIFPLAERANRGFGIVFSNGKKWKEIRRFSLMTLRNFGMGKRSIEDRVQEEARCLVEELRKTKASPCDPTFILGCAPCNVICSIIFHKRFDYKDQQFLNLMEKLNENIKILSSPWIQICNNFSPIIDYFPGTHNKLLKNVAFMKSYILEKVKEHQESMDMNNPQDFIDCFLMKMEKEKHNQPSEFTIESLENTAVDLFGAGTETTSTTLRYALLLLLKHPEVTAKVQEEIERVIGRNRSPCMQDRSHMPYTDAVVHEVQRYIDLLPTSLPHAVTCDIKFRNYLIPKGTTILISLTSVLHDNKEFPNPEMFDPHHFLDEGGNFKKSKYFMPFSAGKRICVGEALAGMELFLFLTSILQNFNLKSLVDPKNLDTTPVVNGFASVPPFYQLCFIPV

[26] = target: Voltage-dependent L-type calcium channel subunit alpha-1C (Homo sapiens, UniProt Q13936); experiment: Inhibition of human Cav1.2 expressed in CHO cells by patch clamp assay; assay type: cell-based
Chain of Voltage-dependent L-type calcium channel subunit alpha-1C (Q13936 whole entry): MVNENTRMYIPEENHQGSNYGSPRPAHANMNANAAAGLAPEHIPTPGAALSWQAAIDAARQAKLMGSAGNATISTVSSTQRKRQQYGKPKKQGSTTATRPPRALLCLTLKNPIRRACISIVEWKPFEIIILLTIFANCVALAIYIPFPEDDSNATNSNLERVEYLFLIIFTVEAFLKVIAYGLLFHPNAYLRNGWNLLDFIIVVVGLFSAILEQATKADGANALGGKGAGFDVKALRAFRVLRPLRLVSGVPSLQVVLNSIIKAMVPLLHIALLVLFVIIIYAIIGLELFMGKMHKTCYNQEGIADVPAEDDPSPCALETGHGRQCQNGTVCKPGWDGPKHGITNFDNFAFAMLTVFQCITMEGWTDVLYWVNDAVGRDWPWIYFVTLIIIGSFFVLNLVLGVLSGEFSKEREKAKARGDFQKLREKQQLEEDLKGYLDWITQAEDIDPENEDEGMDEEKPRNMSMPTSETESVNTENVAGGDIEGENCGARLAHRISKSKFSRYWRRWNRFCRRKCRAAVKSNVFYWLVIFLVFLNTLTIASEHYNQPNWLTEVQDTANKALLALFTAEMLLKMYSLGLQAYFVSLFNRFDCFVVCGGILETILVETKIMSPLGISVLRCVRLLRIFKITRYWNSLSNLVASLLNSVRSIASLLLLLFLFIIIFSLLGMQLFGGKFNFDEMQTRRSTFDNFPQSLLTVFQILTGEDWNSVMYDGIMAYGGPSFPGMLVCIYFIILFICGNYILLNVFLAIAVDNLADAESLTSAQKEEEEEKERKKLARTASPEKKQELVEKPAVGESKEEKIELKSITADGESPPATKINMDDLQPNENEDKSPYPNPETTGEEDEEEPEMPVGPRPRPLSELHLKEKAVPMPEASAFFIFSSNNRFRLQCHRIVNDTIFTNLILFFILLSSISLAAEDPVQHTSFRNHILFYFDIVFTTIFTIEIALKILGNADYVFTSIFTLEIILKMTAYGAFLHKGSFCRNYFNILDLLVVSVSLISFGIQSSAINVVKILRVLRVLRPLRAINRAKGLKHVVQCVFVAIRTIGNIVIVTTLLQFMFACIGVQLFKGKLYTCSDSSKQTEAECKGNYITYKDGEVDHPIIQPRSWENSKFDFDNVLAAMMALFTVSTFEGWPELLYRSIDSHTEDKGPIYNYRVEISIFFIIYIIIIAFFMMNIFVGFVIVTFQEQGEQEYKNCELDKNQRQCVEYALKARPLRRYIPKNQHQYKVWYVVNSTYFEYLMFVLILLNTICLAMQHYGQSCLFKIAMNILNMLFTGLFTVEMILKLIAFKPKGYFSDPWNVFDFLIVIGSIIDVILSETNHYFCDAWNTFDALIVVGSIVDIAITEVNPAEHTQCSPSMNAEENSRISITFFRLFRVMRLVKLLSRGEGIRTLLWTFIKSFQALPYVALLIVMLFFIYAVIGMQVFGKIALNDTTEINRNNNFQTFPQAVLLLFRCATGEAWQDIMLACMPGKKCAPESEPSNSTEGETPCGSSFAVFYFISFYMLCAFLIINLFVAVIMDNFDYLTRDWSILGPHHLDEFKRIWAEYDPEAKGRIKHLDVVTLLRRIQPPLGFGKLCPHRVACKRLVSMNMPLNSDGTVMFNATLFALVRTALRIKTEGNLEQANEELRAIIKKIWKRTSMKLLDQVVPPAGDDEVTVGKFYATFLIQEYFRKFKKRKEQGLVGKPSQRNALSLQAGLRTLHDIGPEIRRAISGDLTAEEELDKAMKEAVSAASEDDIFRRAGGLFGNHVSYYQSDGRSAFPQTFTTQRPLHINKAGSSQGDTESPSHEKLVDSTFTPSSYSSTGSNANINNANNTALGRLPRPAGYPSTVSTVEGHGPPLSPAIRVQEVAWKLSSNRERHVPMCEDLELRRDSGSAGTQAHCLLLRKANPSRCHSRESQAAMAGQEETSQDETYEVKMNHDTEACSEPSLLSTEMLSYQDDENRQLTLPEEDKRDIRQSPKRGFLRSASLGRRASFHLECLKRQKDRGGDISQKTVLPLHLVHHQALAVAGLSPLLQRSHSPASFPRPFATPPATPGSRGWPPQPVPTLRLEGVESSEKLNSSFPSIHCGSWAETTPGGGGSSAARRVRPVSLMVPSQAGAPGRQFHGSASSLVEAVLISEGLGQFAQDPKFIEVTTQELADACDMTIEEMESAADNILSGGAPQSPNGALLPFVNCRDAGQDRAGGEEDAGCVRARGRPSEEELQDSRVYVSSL

[27] = Oral bioavailability in Sprague-Dawley rat at 4 umol/kg; assay type: ADME, organism-based; conditions: in vivo
[28] = Oral bioavailability in beagle dog at 2 umol/kg; assay type: ADME, organism-based, Canis lupus familiaris; conditions: in vivo
[29] = Volume of distribution at steady state in beagle dog at 1 umol/kg, iv or 2 umol/kg, po; assay type: ADME, organism-based, Canis lupus familiaris; conditions: in vivo
[30] = target: A-type voltage-gated potassium channel KCND3 (Homo sapiens, UniProt Q9UK17); experiment: Inhibition of human Kv4.3 expressed in CHO cells by patch clamp assay; assay type: cell-based
[31] = target: Sodium channel protein type 5 subunit alpha (Homo sapiens, UniProt Q14524); experiment: Inhibition of human Nav1.5 expressed in CHO cells by patch clamp assay; assay type: cell-based
Cytochrome P450 3A4 = Cytochrome P450 3A4 (Homo sapiens, UniProt P08684); experiment: Inhibition of human recombinant CYP3A4; assay type: ADME
Chain of Cytochrome P450 3A4 (P08684 whole entry): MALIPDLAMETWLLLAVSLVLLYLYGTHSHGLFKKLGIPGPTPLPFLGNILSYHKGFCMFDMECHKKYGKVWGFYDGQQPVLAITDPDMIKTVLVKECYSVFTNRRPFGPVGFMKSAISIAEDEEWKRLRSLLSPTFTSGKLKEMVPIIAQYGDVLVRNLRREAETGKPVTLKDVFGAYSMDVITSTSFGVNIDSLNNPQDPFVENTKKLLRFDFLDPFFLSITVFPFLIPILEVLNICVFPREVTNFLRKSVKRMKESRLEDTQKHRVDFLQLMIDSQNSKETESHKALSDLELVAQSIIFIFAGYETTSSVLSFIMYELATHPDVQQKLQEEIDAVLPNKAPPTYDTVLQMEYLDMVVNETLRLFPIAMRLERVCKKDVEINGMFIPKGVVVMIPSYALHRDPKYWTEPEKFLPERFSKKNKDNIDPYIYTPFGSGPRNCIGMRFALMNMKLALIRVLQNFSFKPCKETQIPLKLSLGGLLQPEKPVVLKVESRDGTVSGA

[32] = Apparent permeability from apical to basolateral side in human Caco2 cells at pH 6.5; assay type: ADME, cell-based; conditions: caco-2, pH 6.5
Cytochrome P450 2C19 = Cytochrome P450 2C19 (Homo sapiens, UniProt P33261); experiment: Inhibition of human recombinant CYP2C19; assay type: ADME
Cytochrome P450 1A2 = Cytochrome P450 1A2 (Homo sapiens, UniProt P05177); experiment: Inhibition of human recombinant CYP1A2; assay type: ADME
[33] = target: Voltage-dependent T-type calcium channel subunit alpha-1H (Homo sapiens, UniProt O95180); experiment: Inhibition of human Cav3.2 expressed in CHO cells by patch clamp assay; assay type: cell-based
Cytochrome P450 2D6 = Cytochrome P450 2D6 (Homo sapiens, UniProt P10635); experiment: Inhibition of human recombinant CYP2D6; assay type: ADME
Chain of Cytochrome P450 2D6 (P10635 whole entry): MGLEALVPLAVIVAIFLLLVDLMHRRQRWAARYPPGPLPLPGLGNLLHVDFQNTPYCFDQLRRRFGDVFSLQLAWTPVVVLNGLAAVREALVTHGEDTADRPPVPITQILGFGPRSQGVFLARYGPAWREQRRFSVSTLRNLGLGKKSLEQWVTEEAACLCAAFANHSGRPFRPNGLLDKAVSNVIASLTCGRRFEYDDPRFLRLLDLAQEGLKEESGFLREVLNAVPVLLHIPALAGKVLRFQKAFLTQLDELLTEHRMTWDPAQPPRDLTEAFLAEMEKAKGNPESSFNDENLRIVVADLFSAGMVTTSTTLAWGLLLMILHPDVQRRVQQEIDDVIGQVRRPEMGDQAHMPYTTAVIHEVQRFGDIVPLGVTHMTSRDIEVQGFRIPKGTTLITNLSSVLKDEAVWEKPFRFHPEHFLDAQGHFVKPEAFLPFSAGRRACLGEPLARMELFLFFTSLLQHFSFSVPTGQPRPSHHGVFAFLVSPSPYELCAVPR

[34] = target: Voltage-gated inwardly rectifying potassium channel KCNH2 (Homo sapiens, UniProt Q12809); experiment: Inhibition of human ERG expressed in CHO cells by patch clamp assay; assay type: cell-based
[35] = Volume of distribution at steady state in Sprague-Dawley rat at 2 umol/kg, iv or 4 umol/kg, po; assay type: ADME, organism-based; conditions: in vivo

Structure (SMILES): NC(=O)c1ccc(Cc2ccccc2)cc1
- fIC50 [1]: 0.9 µM
- Fu [2]: 1.8%
- IC50 [3]: 24000 nM
- inhibition [4]: Dose-dependent effect
- inhibition (Homo sapiens): inactive
- IC50 [5]: 2200 nM

Structure (SMILES): C[C@@H](Cc1cccc(-c2cc(Cc3ccccc3)ccc2C(N)=O)c1)C(=O)O
- CLint [6]: 9.3 µL/min/1e6 cells
- IC50 [3]: 38 nM
- IC50 [5]: 3800 nM
- IC50 [7]: 1200 nM

Structure (SMILES): CCC(Cc1cccc(-c2cc(Cc3ccccc3)ccc2C(N)=O)c1)C(=O)O (centres undefined)
- CLint [6]: 25 µL/min/1e6 cells
- fIC50 [1]: 0.0008 µM
- IC50 [3]: 21 nM
- IC50 [5]: 430 nM
- IC50 [7]: 70 nM

Structure (SMILES): NC(=O)c1ccc(Cc2ccccc2)cc1-c1cccc(C(=O)O)c1
- IC50 [3]: 910 nM
- IC50 [7]: > 10000 nM
- inhibition [8]: inactive

Structure (SMILES): CC(Cc1cccc(-c2cc(Cc3ccccc3)ccc2C(N)=O)c1)C(=O)O (centres undefined)
- CLint [6]: 9.6 µL/min/1e6 cells
- fIC50 [1]: 0.001 µM
- IC50 [3]: 11 nM
- inhibition (INH) [9]: Not Active
- IC50 [5]: 750 nM
- IC50 [7]: 70 nM

Structure (SMILES): NC(=O)c1ccc(Cc2ccccc2)cc1-c1cccc(CC(=O)O)c1
- fIC50 [1]: 0.04 µM
- IC50 [3]: 70 nM
- IC50 [5]: 1100 nM
- IC50 [7]: 1400 nM

Structure (SMILES): C[C@H](Cc1cccc(-c2cc(Cc3ccccc3)ccc2C(N)=O)c1)C(=O)O
- CLint [6]: 12 µL/min/1e6 cells
- F [10]: 84%
- IC50 [11]: 56 nM
- F [12]: 81%
- fIC50 [1]: 0.0001 µM
- AUC(0-inf) [13]: 284 µM·h
- AUC(0-inf) [14]: 69.7 µM·h
- IC50 (HepG2): 176 nM
- IC50 [15]: < 14 nM
- IC50 [3]: 10 nM
- AUC(0-inf) [16]: 70 µM·h
- inhibition (INH) [9]: Not Active
- F [17]: 91%
- Vdss [18]: 1.1 L/kg
- Vdss [19]: 0.21 L/kg
- fIC80 (Cynomolgus monkey): 13 nM
- inhibition (Cynomolgus monkey; Macaca fascicularis): Dose-dependent effect
- AUC(0-inf) [20]: 71.3 µM·h
- Vdss [21]: 2.8 L/kg
- Vdss [22]: 0.15 L/kg
- fIC50 (Macaca fascicularis): 1 nM
- IC50 [5]: 400 nM
- IC50 [7]: 40 nM
- F [23]: 76.3%

Structure (SMILES): NC(=O)c1ccc(Cc2ccccc2)cc1-c1cccc(CCCC(=O)O)c1
- fIC50 [1]: 0.03 µM
- IC50 [3]: 110 nM
- IC50 [5]: 5400 nM
- IC50 [7]: 4100 nM

Structure (SMILES): CCc1c(C(=O)C(N)=O)c2c(OCC(=O)O)cccc2n1Cc1ccccc1 [VARESPLADIB]
- fIC50 [1]: 0.008 µM
- Fu [2]: 12.5%
- IC50 [7]: 120 nM

Structure (SMILES): NC(=O)c1ccc(Cc2ccccc2)cc1-c1cccc(OCC(=O)O)c1
- IC50 [3]: 190 nM
- IC50 [5]: 3700 nM

Structure (SMILES): NC(=O)c1ccc(Cc2ccccc2)cc1-c1cccc(CCC(=O)O)c1
- IC50 (Cytochrome P450 2C8): > 20000 nM
- solubility kinetic at 24 h [24]: 98 µM (≈ 35.2 µg/mL)
- IC50 [25]: > 33300 nM
- CLint [6]: 5.2 µL/min/1e6 cells
- IC50 (Cytochrome P450 2C9): > 20000 nM
- fIC50 [1]: 0.007 µM
- IC50 [26]: > 33300 nM
- IC50 [3]: 12 nM
- F [27]: 81%
- F [28]: 82%
- Vdss [29]: 0.26 L/kg
- IC50 [30]: > 33300 nM
- IC50 [31]: > 33300 nM
- IC50 (Cytochrome P450 3A4): > 20000 nM
- Papp [32]: 40.1 ×10⁻⁶ cm/s
- IC50 (Cytochrome P450 2C19): > 20000 nM
- IC50 (Cytochrome P450 1A2): > 20000 nM
- IC50 [33]: > 33300 nM
- IC50 (Cytochrome P450 2D6): > 20000 nM
- IC50 [5]: 280 nM
- IC50 [7]: 360 nM
- IC50 [34]: > 33300 nM
- Vdss [35]: 0.22 L/kg
